Experiments:
[1] = Selectivity index, ratio of IC50 for cytotoxicity against human HMEC-1 cells to IC50 for cytotoxicity against human K562 cells; format: toxicity, cell-based; conditions: HMEC-1 cells and K562 cells, read-out: Ratio IC50
HCT-116 [2] = experiment: Induction of apoptosis in human HCT-116 cells assessed as viable cells at IC50 incubated for 72 hrs by Annexin V-FITC/PI staining based flow cytometric analysis (reference value: 90.5 %); format: functional
[3] = Selectivity index, ratio of IC50 for cytotoxicity against human HMEC-1 cells to IC50 for cytotoxicity against human A549 cells; format: toxicity, cell-based; conditions: HMEC-1 cells and A549 cells, read-out: Ratio IC50
[4] = Selectivity index, ratio of IC50 for cytotoxicity against human HMEC-1 cells to IC50 for cytotoxicity against human MDA-MB-231 cells; format: toxicity, cell-based; conditions: HMEC-1 cells and MDA-MB-231 cells, read-out: Ratio IC50
[5] = Selectivity index, ratio of IC50 for cytotoxicity against human HMEC-1 cells to IC50 for cytotoxicity against human SW480 cells
HMEC-1 [6] = experiment: Induction of apoptosis in human HMEC-1 cells assessed as viable cells at IC50 incubated for 72 hrs by Annexin V-FITC/PI staining based flow cytometric analysis (reference value: 90.6 %); format: functional
HepG2 = experiment: Cytotoxicity against human HepG2 cells assessed as cell growth inhibition measured after 72 hrs by MTT assay; format: functional, cell-based; conditions: HepG2, 72 h
K562 [7] = experiment: Induction of apoptosis in human K562 cells assessed as early apoptotic cells at IC50 incubated for 72 hrs by Annexin V-FITC/PI staining based flow cytometric analysis (reference value: 1.3 %); format: functional
[8] = Cytotoxicity against human HMEC-1 cells assessed as cell growth inhibition measured after 72 hrs by MTT assay; format: toxicity, cell-based
HCT-116 [9] = experiment: Cytotoxicity against human HCT-116 cells assessed as cell growth inhibition measured after 72 hrs by MTT assay; format: functional, cell-based; conditions: HCT-116, 72 h
[10] = biological target: T1, 5-hydroxytryptamine receptor 1A (Rattus norvegicus) (UniProt P19327); experiment: Agonist activity at Sprague-Dawley rat hippocampal membrane 5-HT1A receptor assessed as stimulation of [35S]GTPgammaS binding by measuring maximal efficacy measured after 90 mins by scintillation counter analysis relative to control; format: functional, cell membranes; conditions: Hippocampus, filed as agonist
T1 sequence (whole entry): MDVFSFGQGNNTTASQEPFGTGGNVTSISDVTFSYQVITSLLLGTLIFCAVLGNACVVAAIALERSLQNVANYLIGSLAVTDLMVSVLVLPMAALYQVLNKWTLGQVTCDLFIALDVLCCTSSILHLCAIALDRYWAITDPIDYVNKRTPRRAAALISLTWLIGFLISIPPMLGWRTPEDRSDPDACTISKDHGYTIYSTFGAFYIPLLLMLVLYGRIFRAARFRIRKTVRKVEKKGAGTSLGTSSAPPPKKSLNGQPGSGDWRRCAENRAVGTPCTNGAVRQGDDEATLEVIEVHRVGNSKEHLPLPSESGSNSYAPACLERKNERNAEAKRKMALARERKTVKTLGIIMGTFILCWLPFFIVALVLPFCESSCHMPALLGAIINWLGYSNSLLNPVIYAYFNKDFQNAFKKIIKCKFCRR

K562 [11] = experiment: Antiproliferative activity against human K562 cells assessed as reduction in cell number at IC50 measured after 72 hrs by trypan blue dye based assay relative to control; format: functional; design: scale not given: the % may be the effect or the level left
[12] = biological target: T2, 5-hydroxytryptamine receptor 1A (Rattus norvegicus, UniProt P19327); experiment: Agonist activity at Sprague-Dawley rat hippocampal membrane 5-HT1A receptor assessed as stimulation of [35S]GTPgammaS binding measured after 90 mins by scintillation counter analysis; format: functional, cell membranes, Hippocampus
T2 sequence (P19327 whole entry): T1 sequence (whole entry)

HCT-116 [13] = experiment: Induction of apoptosis in human HCT-116 cells assessed as late apoptotic cells at IC50 incubated for 72 hrs by Annexin V-FITC/PI staining based flow cytometric analysis (reference value: 1.6 %); format: functional
HMEC-1 [14] = experiment: Induction of apoptosis in human HMEC-1 cells assessed as late apoptotic cells at IC50 incubated for 72 hrs by Annexin V-FITC/PI staining based flow cytometric analysis (reference value: 4.7 %); format: functional
MDA-MB-231 = experiment: Cytotoxicity against human MDA-MB-231 cells assessed as cell growth inhibition measured after 72 hrs by MTT assay; format: functional, cell-based; conditions: MDA-MB-231, 72 h
K562 [15] = experiment: Induction of apoptosis in human K562 cells assessed as increase in caspase-3/7 activity at IC50 incubated for 24 hrs by Glo assay relative to control; format: functional
[16] = Selectivity index, ratio of IC50 for cytotoxicity against human HMEC-1 cells to IC50 for cytotoxicity against human HepG2 cells; format: toxicity, cell-based; conditions: HMEC-1 cells and HepG2 cells, read-out: Ratio IC50
HMEC-1 [17] = experiment: Induction of apoptosis in human HMEC-1 cells assessed as necrotic cells at IC50 incubated for 72 hrs by Annexin V-FITC/PI staining based flow cytometric analysis (reference value: 2.4 %); format: functional
PC-3 = experiment: Cytotoxicity against human PC-3 cells assessed as cell growth inhibition measured after 72 hrs by MTT assay; format: functional, cell-based; conditions: PC-3, 72 h
Histamine H1 receptor = Histamine H1 receptor (Rattus norvegicus, UniProt P31390); experiment: Displacement of [3H]pyrilamine from Sprague-Dawley rat H1 receptor assessed as inhibition constant measured after 30 mins by competitive binding assay
HMEC-1 [18] = experiment: Induction of apoptosis in human HMEC-1 cells assessed as early apoptotic cells at IC50 incubated for 72 hrs by Annexin V-FITC/PI staining based flow cytometric analysis (reference value: 2.4 %); format: functional
K562 [19] = experiment: Cytotoxicity against human K562 cells assessed as cell growth inhibition measured after 72 hrs by MTT assay; format: functional, cell-based; conditions: K562, 72 h
[20] = Selectivity index, ratio of IC50 for cytotoxicity against human HMEC-1 cells to IC50 for cytotoxicity against human PC-3 cells; format: toxicity, cell-based; conditions: HMEC-1 cells and PC-3 cells, read-out: Ratio IC50
D(2) dopamine receptor = D(2) dopamine receptor (Rattus norvegicus, UniProt P61169); experiment: Antagonist activity at Sprague-Dawley rat striatum membrane D2 receptor assessed as inhibition of dopamine stimulated [35S]GTPgammaS binding measured after 90 mins by scintillation counter analysis; format: functional, cell membranes
HCT-116 [21] = experiment: Antiproliferative activity against human HCT-116 cells assessed as reduction in cell viability at IC50 measured after 72 hrs by trypan blue dye based assay relative to control; format: functional
A549 = experiment: Cytotoxicity against human A549 cells assessed as cell growth inhibition measured after 72 hrs by MTT assay; format: functional, cell-based; conditions: A549, 72 h
HCT-116 [22] = experiment: Induction of apoptosis in human HCT-116 cells assessed as early apoptotic cells at IC50 incubated for 72 hrs by Annexin V-FITC/PI staining based flow cytometric analysis (reference value: 7.8 %); format: functional
HCT-116 [23] = experiment: Induction of apoptosis in human HCT-116 cells assessed as necrotic cells at IC50 incubated for 72 hrs by Annexin V-FITC/PI staining based flow cytometric analysis (reference value: 0.1 %); format: functional
K562 [24] = experiment: Induction of apoptosis in human K562 cells assessed as late apoptotic cells at IC50 incubated for 72 hrs by Annexin V-FITC/PI staining based flow cytometric analysis (reference value: […]); format: functional
HMEC-1 [25] = experiment: Antiproliferative activity against human HMEC-1 cells assessed as reduction in cell viability at IC50 measured after 72 hrs by trypan blue dye based assay relative to control; format: toxicity; conditions: hmec-1, 72 h

Chain of Histamine H1 receptor (P31390 whole entry): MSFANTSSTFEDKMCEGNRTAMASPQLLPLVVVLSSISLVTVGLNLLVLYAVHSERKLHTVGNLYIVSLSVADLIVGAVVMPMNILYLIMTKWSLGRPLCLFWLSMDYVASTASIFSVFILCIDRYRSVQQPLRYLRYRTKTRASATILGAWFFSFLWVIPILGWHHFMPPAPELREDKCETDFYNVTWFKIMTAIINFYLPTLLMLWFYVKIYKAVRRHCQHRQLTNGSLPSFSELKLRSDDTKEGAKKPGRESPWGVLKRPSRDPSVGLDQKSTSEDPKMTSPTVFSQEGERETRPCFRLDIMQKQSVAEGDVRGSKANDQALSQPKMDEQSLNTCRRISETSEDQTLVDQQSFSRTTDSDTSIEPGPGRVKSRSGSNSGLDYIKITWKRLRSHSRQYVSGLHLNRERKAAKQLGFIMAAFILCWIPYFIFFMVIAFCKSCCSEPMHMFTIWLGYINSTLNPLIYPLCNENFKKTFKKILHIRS
Chain of D(2) dopamine receptor (P61169 whole entry): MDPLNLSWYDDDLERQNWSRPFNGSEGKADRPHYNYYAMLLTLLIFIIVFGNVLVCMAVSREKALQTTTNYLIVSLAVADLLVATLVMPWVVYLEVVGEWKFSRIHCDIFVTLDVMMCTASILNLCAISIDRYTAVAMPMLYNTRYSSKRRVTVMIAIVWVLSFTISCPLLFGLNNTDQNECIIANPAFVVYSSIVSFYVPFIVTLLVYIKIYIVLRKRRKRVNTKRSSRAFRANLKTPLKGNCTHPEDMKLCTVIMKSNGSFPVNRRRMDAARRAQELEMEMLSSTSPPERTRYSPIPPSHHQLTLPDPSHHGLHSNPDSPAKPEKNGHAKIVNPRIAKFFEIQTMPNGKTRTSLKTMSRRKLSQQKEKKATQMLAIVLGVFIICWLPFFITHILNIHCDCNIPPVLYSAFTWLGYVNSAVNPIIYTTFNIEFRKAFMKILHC

Emax [10] [%]	EC50 [12] [µM]	SMILES	selectivity ratio [1]	Activity (HCT-116 [2]) [%]	selectivity ratio [3]	selectivity ratio [4]	Ratio IC50 [5]	Activity (HMEC-1 [6]) [%]	IC50 (HepG2) [µM]	Activity (K562 [7]) [%]	IC50 at 72 h [8] [µM]	IC50 (HCT-116 [9]) [µM]	Activity (K562 [11]) [%]	Activity (HCT-116 [13]) [%]	Activity (HMEC-1 [14]) [%]	IC50 (MDA-MB-231) [µM]	Activity (K562 [15]) [%]	selectivity ratio [16]	Activity (HMEC-1 [17]) [%]	IC50 (PC-3) [µM]	also measured
122	0.006	COc1ccccc1N1CCN(CCCCN2C(=O)C3C(C2=O)C2(C)C(=O)C3(C)C(c3ccccc3)=C2c2ccccc2)CC1 (stereo not drawn)	4.47	79.2	1.86	1.03	4.08	94.3	15.7	5.9	30.2	8.89	88	2.3	1.8	29.3	22	1.93	1.7	14.6	Ki (Histamine H1 receptor): 0.3 µM; Activity (HMEC-1 [18]): 2.2%; IC50 (K562 [19]): 6.76 µM; selectivity ratio [20]: 2.07; IC50 (D(2) dopamine receptor): 11.6 µM; Activity (HCT-116 [21]): 34%; IC50 (A549): 16.2 µM; Activity (HCT-116 [22]): 18.4%; Activity (HCT-116 [23]): 0.1%; Activity (K562 [24]): 51.3%; Activity (HMEC-1 [25]): Non-Toxic
152	1.7	CC12C(=O)C(C)(C(c3ccccc3)=C1c1ccccc1)C1C(=O)N(CCCCN3CCN(c4ccccc4F)CC3)C(=O)C12 (stereo not drawn)	3.13	74.9	0.58	0.31	2.28	85.8	26.8	5.2	17.7	4.48	82	1.9	7.3	56.5	74	0.66	5	9.19	Ki (Histamine H1 receptor): 0.007 µM; Activity (HMEC-1 [18]): 1.9%; IC50 (K562 [19]): 5.65 µM; selectivity ratio [20]: 1.92; IC50 (D(2) dopamine receptor): 18.3 µM; Activity (HCT-116 [21]): 35%; IC50 (A549): 30.7 µM; Activity (HCT-116 [22]): 23%; Activity (HCT-116 [23]): 0.2%; Activity (K562 [24]): 27.3%; Activity (HMEC-1 [25]): Non-Toxic
145	0.1	CC12C(=O)C(C)(C(c3ccccc3)=C1c1ccccc1)C1C(=O)N(CCCCN3CCN(c4ccccc4Cl)CC3)C(=O)C12 (stereo not drawn)	5.15	58	0.82	0.85	3.9	86.7	12.9	5.2	20.6	3.58	61	5	4.7	24.3	22	1.6	5.1	7.85	Ki (Histamine H1 receptor): 0.03 µM; Activity (HMEC-1 [18]): 3.5%; IC50 (K562 [19]): 4.01 µM; selectivity ratio [20]: 2.63; IC50 (D(2) dopamine receptor): 8.4 µM; Activity (HCT-116 [21]): 30%; IC50 (A549): 25 µM; Activity (HCT-116 [22]): 36.4%; Activity (HCT-116 [23]): 0.6%; Activity (K562 [24]): 19.4%; Activity (HMEC-1 [25]): Non-Toxic
